These results are taken from ChEMBL document CHEMBL5113489, “Design, synthesis, and biological evaluation of membrane-active honokiol derivatives as potent antibacterial agents” (Eur J Med Chem, 2022).

In series [1] the test system is Staphylococcus aureus. The experiment in a line: Antibacterial activity against Staphylococcus aureus ATCC 31007. The series is classed as functional.
Series [2] can be described thus: Hemolytic activity in sheep RBC. It is filed as toxicity, cell-based, Ovis aries, Erythrocyte. To be noted: sheep red blood cells (erythrocytes).
The test system of another series is Escherichia coli. In words: Antibacterial activity against Escherichia coli ATCC 25922. It is filed as functional.
In another series the test system is Bacillus subtilis. In words: Antibacterial activity against Bacillus subtilis ATCC 9372. The series is classed as functional.
Series [3] has as its system Staphylococcus aureus. In words: Antibacterial activity against Staphylococcus aureus ATCC 43300. It is filed as functional.
A further series concerns Pseudomonas aeruginosa. In words: Antibacterial activity against Pseudomonas aeruginosa ATCC 27853. The series is classed as functional.
A short description of series [4]: Selectivity index, ratio of HC50 for hemolytic activity in sheep RBC to MIC for antibacterial activity against Staphylococcus aureus ATCC 43300. The series is classed as toxicity. To be noted: sheep red blood cells (erythrocytes).
Series [5] relates to Staphylococcus aureus. The experiment in a line: Antibacterial activity against Staphylococcus aureus ATCC 25923. It is filed as functional.

In brackets after ≈: the same amount, converted by molar mass. Bounds are passed on as bounds.

As for `C=CCc1ccc(OCC(=O)NC(CCCCN)C(=O)NCCCCCC)c(-c2ccc(OCC(=O)NC(CCCCN)C(=O)NCCCCCC)c(CC=C)c2)c1.O=C(O)C(F)(F)F.O=C(O)C(F)(F)F` (configuration not stated), the minimum inhibitory concentration (MIC) in the series with Staphylococcus aureus [1] stood at 8 µg/mL; in the series on Escherichia coli, 16 µg/mL; against Bacillus subtilis, 8 µg/mL; with Staphylococcus aureus [3], 8 µg/mL; against Pseudomonas aeruginosa, 16 µg/mL; with Staphylococcus aureus [5] it was 8 µg/mL. The molecule also came in with an HC50 in series [2] of 502 µg/mL. The selectivity ratio in series [4] came out at 62.7.

For the molecule `C=CCc1ccc(OCC(=O)NC(CCCCN)C(=O)NCc2ccc(C(C)(C)C)cc2)c(-c2ccc(OCC(=O)NC(CCCCN)C(=O)NCc3ccc(C(C)(C)C)cc3)c(CC=C)c2)c1.O=C(O)C(F)(F)F.O=C(O)C(F)(F)F` (configuration not stated), the MIC against Staphylococcus aureus [1] was 16 µg/mL; in the series with Escherichia coli, 128 µg/mL; against Bacillus subtilis it was 4 µg/mL; against Staphylococcus aureus [3] it was 4 µg/mL; against Pseudomonas aeruginosa, above 128 µg/mL; against Staphylococcus aureus [5], 8 µg/mL.

`C=CCc1ccc(OCCC[N+](C)(C)CCCCCCCCCCCC)c(-c2ccc(OCCC[N+](C)(C)CCCCCCCCCCCC)c(CC=C)c2)c1.[Br-].[Br-]`: the MIC is 128 µg/mL in the series on Staphylococcus aureus [1]; above 128 µg/mL in the series with Escherichia coli; above 128 µg/mL in the series on Bacillus subtilis; above 128 µg/mL with Staphylococcus aureus [3]; above 128 µg/mL against Pseudomonas aeruginosa; 128 µg/mL in the series on Staphylococcus aureus [5].

With `C=CCc1ccc(O)c(-c2ccc(O)c(CC=C)c2)c1` [HONOKIOL], the MIC in the series with Staphylococcus aureus [1] is 64 µg/mL (≈ 240 µM); in the series with Escherichia coli, above 128 µg/mL; with Bacillus subtilis, 32 µg/mL (≈ 120 µM); in the series with Staphylococcus aureus [3], 128 µg/mL (≈ 481 µM); in the series with Pseudomonas aeruginosa it was above 128 µg/mL; with Staphylococcus aureus [5], 64 µg/mL (≈ 240 µM).

On to `C=CCc1ccc(OCC(=O)NC(CCCCN)C(=O)NCCCCCCCC)c(-c2ccc(OCC(=O)NC(CCCCN)C(=O)NCCCCCCCC)c(CC=C)c2)c1.O=C(O)C(F)(F)F.O=C(O)C(F)(F)F` (configuration not stated), for which the MIC against Staphylococcus aureus [1] was 16 µg/mL; with Escherichia coli, 64 µg/mL; against Bacillus subtilis, 8 µg/mL; against Staphylococcus aureus [3], 8 µg/mL; in the series on Pseudomonas aeruginosa, 128 µg/mL; in the series with Staphylococcus aureus [5], 16 µg/mL.

`C=CCc1ccc(OCC(=O)NC(CCCCN)C(=O)NCCCCCCCCCCCC)c(-c2ccc(OCC(=O)NC(CCCCN)C(=O)NCCCCCCCCCCCC)c(CC=C)c2)c1.O=C(O)C(F)(F)F.O=C(O)C(F)(F)F` (configuration not stated): the MIC is 64 µg/mL in the series on Staphylococcus aureus [1]; above 128 µg/mL against Escherichia coli; above 128 µg/mL against Bacillus subtilis; 64 µg/mL against Staphylococcus aureus [3]; above 128 µg/mL with Pseudomonas aeruginosa; 128 µg/mL in the series with Staphylococcus aureus [5].

As to `C=CCc1ccc(OCC(=O)NCCC[N+](C)(C)C)c(-c2ccc(OCC(=O)NCCC[N+](C)(C)C)c(CC=C)c2)c1.[I-].[I-]`, the MIC in the series with Staphylococcus aureus [1] is 128 µg/mL; in the series with Escherichia coli it was 16 µg/mL; in the series with Bacillus subtilis it was above 128 µg/mL; against Staphylococcus aureus [3], above 128 µg/mL; in the series on Pseudomonas aeruginosa it was above 128 µg/mL; against Staphylococcus aureus [5], 64 µg/mL.

For `CN[C@H](CC(C)C)C(=O)N[C@H]1C(=O)N[C@@H](CC(N)=O)C(=O)N[C@H]2C(=O)N[C@H]3C(=O)N[C@H](C(=O)N[C@H](C(=O)O)c4cc(O)cc(O)c4-c4cc3ccc4O)[C@H](O)c3ccc(c(Cl)c3)Oc3cc2cc(c3O[C@@H]2O[C@H](CO)[C@@H](O)[C@H](O)[C@H]2O[C@H]2C[C@](C)(N)[C@H](O)[C@H](C)O2)Oc2ccc(cc2Cl)[C@H]1O` [VANCOMYCIN], the MIC against Escherichia coli was above 128 µg/mL; against Bacillus subtilis, 0.5 µg/mL (≈ 0.345 µM); against Pseudomonas aeruginosa, above 128 µg/mL.

Consider `C=CCc1ccc(OCC(=O)NCCCCN)c(-c2ccc(OCC(=O)NCCCCN)c(CC=C)c2)c1.O=C(O)C(F)(F)F.O=C(O)C(F)(F)F`, for which the MIC in the series on Staphylococcus aureus [1] is 64 µg/mL; with Escherichia coli, 128 µg/mL; in the series with Bacillus subtilis, 128 µg/mL; in the series with Staphylococcus aureus [3] it was 32 µg/mL; in the series with Pseudomonas aeruginosa it was 64 µg/mL; against Staphylococcus aureus [5], 32 µg/mL.

On to `C=CCc1ccc(OCC(=O)NCCC[N+](C)(C)CCCCCCCCCCCC)c(-c2ccc(OCC(=O)NCCC[N+](C)(C)CCCCCCCCCCCC)c(CC=C)c2)c1.[Br-].[Br-]`, for which the MIC was 8 µg/mL against Staphylococcus aureus [1]; 32 µg/mL in the series with Escherichia coli; 32 µg/mL in the series with Bacillus subtilis; 4 µg/mL in the series with Staphylococcus aureus [3]; 128 µg/mL against Pseudomonas aeruginosa; 8 µg/mL in the series with Staphylococcus aureus [5].

As for `C=CCc1ccc(OCCC[N+](C)(C)CCCCCCCCCC)c(-c2ccc(OCCC[N+](C)(C)CCCCCCCCCC)c(CC=C)c2)c1.[Br-].[Br-]`, the MIC was 32 µg/mL in the series with Staphylococcus aureus [1]; above 128 µg/mL with Escherichia coli; 2 µg/mL against Bacillus subtilis; 4 µg/mL in the series with Staphylococcus aureus [3]; above 128 µg/mL against Pseudomonas aeruginosa; 16 µg/mL in the series with Staphylococcus aureus [5].

For `C=CCc1ccc(OCC(=O)NC(CCCCN)C(=O)NCc2ccc(-c3ccccc3)cc2)c(-c2ccc(OCC(=O)NC(CCCCN)C(=O)NCc3ccc(-c4ccccc4)cc3)c(CC=C)c2)c1.O=C(O)C(F)(F)F.O=C(O)C(F)(F)F` (configuration not stated), the MIC in the series with Staphylococcus aureus [1] was 32 µg/mL; with Escherichia coli, above 128 µg/mL; in the series with Bacillus subtilis, 8 µg/mL; in the series on Staphylococcus aureus [3] it was 16 µg/mL; against Pseudomonas aeruginosa it was above 128 µg/mL; with Staphylococcus aureus [5], 32 µg/mL.

On to `C=CCc1ccc(OCC(=O)NCCC[N+](C)(C)CCCC)c(-c2ccc(OCC(=O)NCCC[N+](C)(C)CCCC)c(CC=C)c2)c1.[Br-].[Br-]`, for which the MIC against Staphylococcus aureus [1] was 128 µg/mL; in the series on Escherichia coli, 128 µg/mL; in the series on Bacillus subtilis, above 128 µg/mL; in the series with Staphylococcus aureus [3], 128 µg/mL; in the series on Pseudomonas aeruginosa, above 128 µg/mL; in the series on Staphylococcus aureus [5] it was 64 µg/mL.

Take `C=CCc1ccc(OCC(=O)NC(CCCCN)C(=O)NCCCC)c(-c2ccc(OCC(=O)NC(CCCCN)C(=O)NCCCC)c(CC=C)c2)c1.O=C(O)C(F)(F)F.O=C(O)C(F)(F)F` (configuration not stated): the MIC was 32 µg/mL against Staphylococcus aureus [1]; 32 µg/mL against Escherichia coli; 8 µg/mL against Bacillus subtilis; 16 µg/mL with Staphylococcus aureus [3]; 32 µg/mL in the series on Pseudomonas aeruginosa; 16 µg/mL against Staphylococcus aureus [5].

Take `C=CCc1ccc(OCC(=O)NCCN)c(-c2ccc(OCC(=O)NCCN)c(CC=C)c2)c1.O=C(O)C(F)(F)F.O=C(O)C(F)(F)F`: the MIC against Staphylococcus aureus [1] is 32 µg/mL; against Escherichia coli, 64 µg/mL; against Bacillus subtilis, 128 µg/mL; against Staphylococcus aureus [3] it was 32 µg/mL; in the series with Pseudomonas aeruginosa, 128 µg/mL; in the series on Staphylococcus aureus [5], 32 µg/mL.

Take `C=CCc1ccc(OCC(=O)NCCCN)c(-c2ccc(OCC(=O)NCCCN)c(CC=C)c2)c1.O=C(O)C(F)(F)F.O=C(O)C(F)(F)F`: the MIC against Staphylococcus aureus [1] was 64 µg/mL; with Escherichia coli, 128 µg/mL; in the series on Bacillus subtilis, above 128 µg/mL; against Staphylococcus aureus [3] it was 64 µg/mL; in the series on Pseudomonas aeruginosa, 64 µg/mL; with Staphylococcus aureus [5], 32 µg/mL.

For `C=CCc1ccc(OCCC[N+](C)(C)CCCCCCCCCCCCCC)c(-c2ccc(OCCC[N+](C)(C)CCCCCCCCCCCCCC)c(CC=C)c2)c1.[Br-].[Br-]`, the MIC was 128 µg/mL with Staphylococcus aureus [1]; above 128 µg/mL in the series on Escherichia coli; above 128 µg/mL with Bacillus subtilis; above 128 µg/mL in the series with Staphylococcus aureus [3]; above 128 µg/mL with Pseudomonas aeruginosa; 16 µg/mL with Staphylococcus aureus [5].

Regarding `C=CCc1ccc(OCC(=O)NCCCN(C)C)c(-c2ccc(OCC(=O)NCCCN(C)C)c(CC=C)c2)c1`, the minimal inhibitory concentration (MIC) is 128 µg/mL (≈ 232 µM) with Staphylococcus aureus [1]; above 128 µg/mL against Escherichia coli; above 128 µg/mL with Bacillus subtilis; above 128 µg/mL in the series on Staphylococcus aureus [3]; above 128 µg/mL against Pseudomonas aeruginosa; 128 µg/mL (≈ 232 µM) with Staphylococcus aureus [5].

What is called MIC is the smallest concentration in the dilution series that meets the test's criterion for growth inhibition. For orientation: HC50 means the concentration giving 50% haemolysis.
